In US8551937B2, “Peptide having an extending action for half-life of object peptide in plasma” (priority 2008, dated 2013):
Where a SMILES comes first, the peptide text is derived from it. Bridges are numbered along the chain shown (N, C = ends).

What was measured:
[1] = CNP immunoreactivity concentration in plasma after administration to rats (competitive RIA), pharmacokinetic parameters (Example 2); format: in vivo, rat; conditions: rat, plasma, 0.1 mg/kg, male rats, N = 3, mean ± SD; for half-life: read-out: T½
Protocol: Pharmacokinetic parameters were calculated from the resulting changes in immunoreactivity concentrations in plasma. At that time, WinNonlin Professional Ver. 4.0.1 (manufactured by Pharsight Corporation, U.S.A.) was used as the analytical software. Method for the calculation of each parameter is mentioned as follows.
Concentration at time 0 (C0; extrapolated value, ng/mL), area under the curve for concentration in plasma vs. time (AUC; ng.min/mL) and quenching half-life (T½; minute(s)) were calculated as follows. C0 was calculated as a value at time by means of extrapolation from the changes in immunoreactivity concentration in plasma at each blood collection period. AUC was calculated by a trapezoidal method using the immunoreactivity concentrations in plasma at all measuring points (t) and an extrapolated value until the infinitive time was determined. T½ was calculated by means of a least-squares method from the inclination of a straight line connecting several points in a disappearing phase of the immunoreactivity concentration in plasma. In the case of a subcutaneous administration, C0 was not determined but the maximum concentration in plasma (Cmax; ng/mL) and the time reaching the maximum concentration in plasma (Tmax; min) were determined.
Changes in CNP immunoreactivity concentration in plasma of native CNP-22 and chimeric peptide (chimeric CNP) where a half-life-extension peptide was added to CNP were investigated.
The experiment was conducted in the same manner as in Example 1 that rats where polyethylene tube was previously inserted into thigh artery were used under an anesthetizing condition with Nembutal and male SD strain rats of 7 weeks age (purchased from Nippon Charles River) were used where one group comprised 3 rats. […] At that time, a rabbit polyclonal antibody (#2) recognizing a ring part of native CNP-22 was used as an antibody and ^125I-[Tyr^0] CNP was used as a labeling compound. Pharmacokinetic analysis was carried out by the same method as in Example 1.

[2] = biological target: T1, neutral endopeptidase (NEP) (Homo sapiens, UniProt P08473); assay: Resistance to peptidase: stability to hNEP (HPLC residual rate); format: in vitro ADME; conditions: human, isolated enzyme neprilysin, pH 6.5
T1 construct: purchased R&D Systems, Inc., U.S.A
T1 sequence (P08473 whole entry): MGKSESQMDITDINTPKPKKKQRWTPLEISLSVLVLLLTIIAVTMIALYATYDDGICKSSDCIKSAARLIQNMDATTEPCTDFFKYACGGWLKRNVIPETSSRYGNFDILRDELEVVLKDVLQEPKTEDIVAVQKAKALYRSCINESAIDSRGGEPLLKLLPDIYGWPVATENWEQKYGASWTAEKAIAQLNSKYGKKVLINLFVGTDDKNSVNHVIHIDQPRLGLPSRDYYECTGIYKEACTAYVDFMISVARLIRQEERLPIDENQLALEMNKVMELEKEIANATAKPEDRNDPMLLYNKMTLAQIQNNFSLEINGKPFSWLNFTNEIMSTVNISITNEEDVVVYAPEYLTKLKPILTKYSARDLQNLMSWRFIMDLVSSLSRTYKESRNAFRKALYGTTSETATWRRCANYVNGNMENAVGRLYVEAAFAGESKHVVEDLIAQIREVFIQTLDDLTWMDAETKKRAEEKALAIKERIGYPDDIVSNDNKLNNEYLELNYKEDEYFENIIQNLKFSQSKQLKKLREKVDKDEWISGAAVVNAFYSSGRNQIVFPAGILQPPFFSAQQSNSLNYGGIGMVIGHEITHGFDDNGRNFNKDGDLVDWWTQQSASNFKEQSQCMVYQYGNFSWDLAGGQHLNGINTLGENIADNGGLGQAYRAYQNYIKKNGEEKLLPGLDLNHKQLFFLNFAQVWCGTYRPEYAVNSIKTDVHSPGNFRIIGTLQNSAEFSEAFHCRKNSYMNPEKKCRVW
Protocol: The experiment was conducted in N=2 for each sample. Native CNP-22, chimeric CNP (A, B) (structure mentioned already; final concentration: 0.5 μg/mL) and 100 μL of reaction solution (medium: 20 mM MES, pH 6.5) of human type recombinant neutral endopeptidase (hNEP, manufactured by R&D Systems, Inc., U.S.A.) were prepared. […] Distilled water (100 μL) was added to the sample after boiling followed by well mixing and 50 μL thereof was analyzed in a water-acetonitrile system using a high-performance liquid chromatography system LC-10A (manufactured by Shimadzu). The analytical data were analyzed by a Chromato-Pack (CRA-10A, manufactured by Shimadzu) and area of the peak zone of unchanged substance was calculated. The area of average zone of unchanged substance when made to react at 37° C. was divided by the area of average zone of the boiled sample to calculate the residual rate of the unchanged substance after 1 hour.

NEP = biological target: T2, NEP (Rattus norvegicus, UniProt P07861); assay: NEP resistance in vivo: influence of NEP inhibitor on pharmacokinetic parameters after intravenous administration; conditions: rat, in vivo
T2 construct: male SD strain rats of 7 weeks age (Nippon Charles River; body weight: ca. 250 g) were used; from tissue; host or cells: whole animal: male SD rats (Nippon Charles River), in vivo
T2 sequence (P07861 1-750): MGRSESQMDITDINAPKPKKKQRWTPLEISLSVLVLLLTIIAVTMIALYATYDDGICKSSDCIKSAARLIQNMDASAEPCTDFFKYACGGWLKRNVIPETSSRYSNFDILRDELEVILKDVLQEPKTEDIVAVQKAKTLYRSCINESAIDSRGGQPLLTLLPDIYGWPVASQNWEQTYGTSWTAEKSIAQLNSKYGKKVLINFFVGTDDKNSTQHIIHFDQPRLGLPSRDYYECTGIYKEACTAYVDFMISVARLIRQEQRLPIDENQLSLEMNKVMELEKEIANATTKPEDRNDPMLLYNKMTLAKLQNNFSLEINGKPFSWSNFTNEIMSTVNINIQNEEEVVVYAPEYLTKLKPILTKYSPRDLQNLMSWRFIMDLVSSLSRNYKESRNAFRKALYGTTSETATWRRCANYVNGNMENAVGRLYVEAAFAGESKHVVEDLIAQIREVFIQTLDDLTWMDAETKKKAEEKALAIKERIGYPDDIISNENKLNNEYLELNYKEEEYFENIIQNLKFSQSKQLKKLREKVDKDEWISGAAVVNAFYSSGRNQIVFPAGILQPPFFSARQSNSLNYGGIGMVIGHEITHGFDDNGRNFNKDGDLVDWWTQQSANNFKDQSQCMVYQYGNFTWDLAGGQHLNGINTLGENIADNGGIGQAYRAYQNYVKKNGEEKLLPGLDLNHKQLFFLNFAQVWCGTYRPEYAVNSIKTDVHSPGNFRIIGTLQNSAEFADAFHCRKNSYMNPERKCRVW
Protocol: Further, NEP resistance in vivo of the native CNP-22 and chimeric CNP (B) was evaluated using the effect by the joint use with an NEP inhibitor affecting on changes in CNP immunoreactivity concentration in plasma after the intravenous administration as an index. This test was also carried out using rats into which a polyethylene tube (PE-50, manufactured by Clay […].) was inserted into thigh artery for collection of blood and rats into which a polyethylene tube (PE-10, manufactured by Clay […].) was inserted into thigh vein for administration of an NEP inhibitor under an anesthetizing condition using Nembutal. As a test system, male SD strain rats of 7 weeks age (Nippon Charles River; body weight: ca. 250 g) were used for the experiment where one group comprised 3 rats. […] Time for the administration was from 10 minutes before the administration of the native CNP-22 or the chimeric CNP (B) to completion of blood collection which was 60 minutes after the administration. The native CNP-22 and the chimeric CNP (B) each was administered into the tail vein in a dose of 20 μg/kg and the blood before starting the administration of NEP inhibitor (-10 minutes), before the administration of CNP (0 minute) and until after 60 minutes from the administration was collected by a thigh artery cannula. After a stabilizer and an anticoagulant were added to the collected blood, it was centrifuged to give plasma and the immunoreactivity concentration in the plasma was measured by the above-mentioned competitive RIA. The pharmacokinetic analysis was carried out by the same method as in Example 1.

in vivo = conditions: male, SD, rat, iv, 20 nmol/kg

| AUC(0-inf) ([1]; sc, subcutaneous) | Cmax ([1]; sc, subcutaneous) | Tmax ([1]; sc, subcutaneous) | half-life ([1]; sc, subcutaneous) | AUC(0-inf) ([1]; intravenous) | C0 ([1]; intravenous, extrapolated value) | half-life ([1]; intravenous) | remaining at 1 h, 0.5 μg/mL [2] | AUC0→∞ (NEP; male, SD, iv, 0.02 mg/kg) | C0 (NEP; male, SD, iv, 0.02 mg/kg) | T½ (NEP; male, SD, iv, 0.02 mg/kg) | AUC(0-inf) (NEP; male, SD, iv, 0.02 mg/kg, AUC0→∞) | C0 (NEP; male, SD, iv, 0.02 mg/kg, C0) | half-life (NEP; male, SD, iv, 0.02 mg/kg, T½) | decomposition by NEP in the body of the rat (NEP) | Compound | half-life (in vivo) |
| --- | --- | --- | --- | --- | --- | --- | --- | --- | --- | --- | --- | --- | --- | --- | --- | --- |
| 28.1 ng·h/mL | 32.8 ± 7.9 ng/mL | 10 min | 24 ± 9.7 min | 153 ng·h/mL | 1470 ± 749 ng/mL | 36.2 ± 2.3 min | 83.8% | 1342 ± 168 ng·min/mL | 203 ± 71 ng/mL | 12.7 ± 1.2 min | 24.5 ng·h/mL | 253 ± 15 ng/mL | 14.9 ± 3.1 min | hardly decomposed by NEP | CC[C@H](C)[C@@H]1NC(=O)[C@H](CCCNC(=N)N)NC(=O)[C@H](CC(=O)O)NC(=O)[C@H](CC(C)C)NC(=O)[C@H](CCCCN)NC(=O)[C@H](CC(C)C)NC(=O)CNC(=O)[C@H](Cc2ccccc2)NC(=O)[C@@H](N)CSSC[C@@H](C(=O)N[C@H](C(=O)N[C@@H](CCC(N)=O)C(=O)N[C@@H](CCC(N)=O)C(=O)N[C@@H](CCCNC(=N)N)C(=O)N[C@@H](CCCCN)C(=O)N[C@@H](CCC(=O)O)C(=O)N[C@@H](CO)C(=O)N[C@@H](CCCCN)C(=O)N[C@@H](CCCCN)C(=O)N2CCC[C@H]2C(=O)N2CCC[C@H]2C(=O)N[C@@H](C)C(=O)N[C@@H](CCCCN)C(=O)N[C@@H](CC(C)C)C(=O)N[C@@H](CCC(N)=O)C(=O)N2CCC[C@H]2C(=O)N[C@@H](CCCNC(=N)N)C(=O)O)C(C)C)NC(=O)CNC(=O)[C@H](CC(C)C)NC(=O)CNC(=O)[C@H](CO)NC(=O)[C@H](CCSC)NC(=O)[C@H](CO)NC(=O)CNC1=O [Chimeric CNP (B)] (H-CFGLKLDRIGSMSGLGCVQQRKESKKPPAKLQPR-OH; disulfide 1-17; N-terminus and C-terminus assumed) |  |
|  |  |  |  |  |  |  |  |  |  |  |  |  |  |  | CC[C@H](C)[C@@H]1NC(=O)[C@H](CCCNC(=N)N)NC(=O)[C@H](CC(=O)O)NC(=O)[C@H](CC(C)C)NC(=O)[C@H](CCCCN)NC(=O)[C@H](CC(C)C)NC(=O)CNC(=O)[C@H](Cc2ccccc2)NC(=O)[C@@H](NC(=O)CNC(=O)[C@H](CCCCN)NC(=O)[C@H](CO)NC(=O)[C@H](CC(C)C)NC(=O)CN)CSSC[C@@H](C(=O)N[C@H](C(=O)N[C@@H](CCC(N)=O)C(=O)N[C@@H](CCC(N)=O)C(=O)N[C@@H](CCCNC(=N)N)C(=O)N[C@@H](CCCCN)C(=O)N[C@@H](CC(=O)O)C(=O)N[C@@H](CO)C(=O)N[C@@H](CCCCN)C(=O)N[C@@H](CCCCN)C(=O)N2CCC[C@H]2C(=O)N2CCC[C@H]2C(=O)N[C@@H](C)C(=O)N[C@@H](CCCCN)C(=O)N[C@@H](CC(C)C)C(=O)N[C@@H](CCC(N)=O)C(=O)N2CCC[C@H]2C(=O)N[C@@H](CCCNC(=N)N)C(=O)O)C(C)C)NC(=O)CNC(=O)[C@H](CC(C)C)NC(=O)CNC(=O)[C@H](CO)NC(=O)[C@H](CCSC)NC(=O)[C@H](CO)NC(=O)CNC1=O [Chimeric CNP (J)] (H-GLSKGCFGLKLDRIGSMSGLGCVQQRKDSKKPPAKLQPR-OH; disulfide 6-22; N-terminus and C-terminus assumed) | 31.2 min |
|  |  |  |  |  |  |  |  |  |  |  |  |  |  |  | CC[C@H](C)[C@@H]1NC(=O)[C@H](CCCNC(=N)N)NC(=O)[C@H](CC(=O)O)NC(=O)[C@H](CC(C)C)NC(=O)[C@H](CCCCN)NC(=O)[C@H](CC(C)C)NC(=O)CNC(=O)[C@H](Cc2ccccc2)NC(=O)[C@@H](N)CSSC[C@@H](C(=O)N[C@@H](C)C(=O)NCC(=O)N[C@@H](CO)C(=O)N[C@H](C(=O)N[C@@H](CC(=O)O)C(=O)N[C@@H](Cc2c[nH]cn2)C(=O)N[C@@H](CCCCN)C(=O)NCC(=O)N[C@@H](CCCCN)C(=O)N[C@@H](CCC(N)=O)C(=O)N[C@@H](CCCNC(=N)N)C(=O)N[C@@H](CCCCN)C(=O)N[C@H](C(=O)N[C@H](C(=O)N[C@@H](CC(=O)O)C(=O)N[C@@H](Cc2c[nH]cn2)C(=O)N2CCC[C@H]2C(=O)N[C@@H](CCCCN)C(=O)N[C@@H](CCCNC(=N)N)C(=O)O)C(C)C)C(C)C)C(C)C)NC(=O)CNC(=O)[C@H](CC(C)C)NC(=O)CNC(=O)[C@H](CO)NC(=O)[C@H](CCSC)NC(=O)[C@H](CO)NC(=O)CNC1=O [Chimeric CNP (K)] (H-CFGLKLDRIGSMSGLGCAGSVDHKGKQRKVVDHPKR-OH; disulfide 1-17; N-terminus and C-terminus assumed) | 18 min |
